The values below come from patent US8518892B2, “Methods to treat symptoms of pathophysiology related to body mass” (Board of Supervisors of Louisiana State University and …, priority 2005, dated 2013).

Assay [1] relates to phosphorylation of Erk1 in fully differentiated 3T3-L1 adipocytes. As to the kind of experiment: Erk phosphorylation in 3T3-L1 adipocytes. Conditions: 1 μg/ml Enho1^34-76, 15 minutes after application. Format: cell-based. The protocol: FIG. 11A illustrates the increase in Erk phosphorylation in 3T3-L1 adipocytes 15 minutes after the application of the secreted portion of protein Enho1 (Enho1^34-76; SEQ ID NO:10).
(§1) An experiment was conducted to test the use of a recombinant or synthetic forms of the short secreted polypeptide Enho1^34-76 (SEQ ID NO:10). A study was conducted where the response of adipocytes and hepatocytes, two potential sites of Enho1 action, to synthetic Enho1^34-76 was analyzed with changes in extracellular regulated kinase (ERK) as the measured response. ERK1/2 and p38α are important in the regulation of lipolysis and thermogenesis in adipocytes.
(§2) In addition, a shorter, second peptide was synthesized using amino acids 39 through 76 of SEQ ID NO:2, and called “Enho1^39-76” (SEQ ID NO:11).

The subject of assay [2] is phosphorylation of Erk1 in HepG2 cells. Description: Erk phosphorylation in HepG2 cells. The class given is cell-based. The following applies: 1 μg/ml Enho1^34-76, 15 minutes after application. The protocol:
FIG. 11B illustrates the increase in Erk phosphorylation in HepG2 hepatocytes 15 minutes after the application of the secreted protein Enho1 (Enho1^34-76; SEQ ID NO:10).
as §1, §2

The next assay deals with Lep^ob/Lep^ob mice. As to the kind of experiment: Leptin treatment of Lep^ob/Lep^ob mice, hepatic AK009710 (Enho1) mRNA by RealTime PCR. Format: in vivo, mouse. Conditions: liver of Lep^ob/Lep^ob mice, 4 injections of 0.5 mg/g leptin over 2 days, vs saline. The protocol:
FIG. 3C illustrates the amount of hepatic AK009710 mRNA expression (given as a percent of expression with saline) in leptin-deficient Lep^ob/Lep^ob mice injected 4 times over 2 days with either saline or leptin (0.5 mg/g).
Quantitative RealTime PCR confirmed the microarray data showing a tendency for a modest reduction in the expression of AK009710 in liver of Mc3rKO (FIG. 3A). […] (FIG. 3C). […] Moreover, AK009710 expression correlated negatively with fasting glucose in diet-induced obese B6 mice (n=13, R^2=0.67, P<0.001) (data not shown).
Oligonucleotide primers targeted to AK009710 mRNA were utilized to measure AK009710 gene expression in liver cDNA from various mouse models of obesity and insulin resistance. Sequences of primers were: sense 5-[…]-3′ (SEQ ID NO:3), antisense 5′-[…]-3′ (SEQ ID NO:4), probe 5′-6FAM-[…]-BHQ-3′ (SEQ ID NO:5). In agreement with the initial microarray result, AK009710 mRNA was down regulated in the liver of Mc3r−/− mice compared to WT mice (by 55%, p<0.05; FIG. 3A). Next was examined the AK009710 liver mRNA expression in two other models of obesity: Mc4r−/− mice and leptin-deficient Lep^ob/Lep^ob mice. AK009710 mRNA was expressed at approximately 10-fold lower levels in both of these models compared to wild-type mice (WT) (FIG. 3B). […]

For the molecule “Enho1^34-76: synthetic peptide corresponding to amino acids 34 through 76 of SEQ ID NO:2, the mouse protein; secreted portion of Enho1 (CHSRSADVDSLSESSPNSSPGPCPEKAPPPQKPSHEGSYLLQP; mus sp.)”, the “phosphorylation of Erk1” value in assay [1] and in assay [2] was “robust increase” in each case.

B1: leptin (protein, UniProt P41160 22-167, looked up)
Leptin: VPIQKVQDDTKTLIKTIVTRINDISHTQSVSAKQRVTGLDFIPGLHPILSLSKMDQTLAVYQQVLTSLPSQNVLQIANDLENLRDLLHLLAFSKSCSLPQTSGLQKPESLDGVLEASLYSTEVVALSRLQGSLQDILQQLDVSPEC
notes: adipocytokine, injected into Lep^ob/Lep^ob mice
As to B1, the “hepatic Enho1 (AK009710) mRNA expression” value in the assay with Lep^ob/Lep^ob mice is “significantly increased”.
